Biological target: T1, TrkA (Homo sapiens, UniProt P04629)
T1 construct: aa 441-796; His; purchased Invitrogen PV3144
Experiment: Isolated TRK enzyme assay (HTRF KinEASE-TK kit), PV3144 TrkA enzyme assay
Assay type: biochemical
Details: PV3144 TrkA enzyme assay, recombinant His-tagged cytoplasmic domain aa 441-796, 4 nM enzyme, 40 uM ATP; arithmetic mean where more than one reading; read-out: Trka enzyme (IC50)
Method: Isolated TRK Enzyme assays use the HTRF KinEASE-TK kit (Cisbio Cat#62TK0PEJ) with recombinant His-tagged cytoplasmic domains of each TRK receptor sourced from Invitrogen (see table below). This activity-assay measures the phosphorylation of tyrosine residues within a substrate from the HTRF kit which has been validated by Cisbio for a variety of tyrosine kinases including the TRK receptors.
0.5 mM stock solutions of test compounds are prepared and serially diluted in 100% DMSO. A standard curve using the compound of Example 135 disclosed in WO2005/116035 of 150 uM is also prepared on each test plate. High percentage effect (HPE) is defined by 150 uM (using the compound of Example 135 as disclosed in WO2005/116035) and 0% effect (ZPE) is defined by 100% DMSO. Greiner low volume black plates containing 0.2 ul of serially diluted compound, standard and HPE/ZPE are created using the Bravo nanolitre dispenser.
1X enzyme buffer is prepared from 5X Enzymatic Buffer from the Cisbio KinEASE TK kit using MilliQ water. The buffer is then supplemented with 10 mM MgCl and 2 mM DTT (both from Sigma). In the case of TRKB, the buffer is also supplemented with 125 nM Supplement Enzymatic Buffer (SEB) from the Cisbio kit.
2X FAC of enzyme and 2X FAC ATP diluted in 1X complete enzyme buffer is incubated at room temperature for 20 minutes to preactivate the enzyme. Following this preactivation step, 5 ul/well of enzyme+ATP mix is added using a Multidrop Micro to the assay plate, spotted with 0.2 ul 100% DMSO compound. This is left for 20 mins at room temperature before adding 5 ul of 2 uM TK-substrate-Biotin (from the Cisbio kit) diluted in 1X enzyme buffer (1 uM FAC) using the Multidrop Micro. The reaction is incubated at room temperature for the optimized assay reaction time (see table). The reaction is stopped by adding 10 ul/well HTRF Detection Buffer containing 0.25 uM Streptavidin-XL665 (0.125 uM FAC) and 1:200 TK Antibody-Cryptate using a Multidrop.
After the Detection Reagent addition, plates are covered and incubated at room temperature for 60 minutes. HTRF signal is read using an Envision reader, measured as a ratio of emissions at two different wavelengths, 620 nm and 665 nm. […] Test compound data are expressed as percentage inhibition defined by HPE and ZPE values for each plate. Percentage inhibition in the presence of test compound is plotted against compound concentration on a log scale to determine an IC50 from the resultant sigmoid curve.
Below are TrkA IC50 data generated using the PV3144 TrkA enzyme assay. Where more than one reading was taken, the arithmetic mean is presented.

T1 sequence (P04629 441-796): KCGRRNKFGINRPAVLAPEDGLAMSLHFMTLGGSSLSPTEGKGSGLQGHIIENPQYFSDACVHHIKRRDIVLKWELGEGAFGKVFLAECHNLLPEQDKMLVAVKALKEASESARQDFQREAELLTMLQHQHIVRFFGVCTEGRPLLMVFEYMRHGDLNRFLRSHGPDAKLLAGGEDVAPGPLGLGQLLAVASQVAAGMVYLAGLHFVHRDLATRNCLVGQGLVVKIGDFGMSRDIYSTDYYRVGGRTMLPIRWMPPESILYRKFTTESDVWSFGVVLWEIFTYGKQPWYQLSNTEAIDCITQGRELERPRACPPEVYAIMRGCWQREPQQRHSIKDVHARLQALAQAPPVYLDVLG

CC(C)n1cc(C(=O)c2ccnc(NC(=O)Cc3ccc(OC4CC4)cc3)c2)c2cncnc21 [Example 72, 2-[4-(cyclopropyloxy)phenyl]-N-(4-{[7-(propan-2-yl)-7H-pyrrolo[2,3-d]pyrimidin-5-yl]carbonyl}pyridin-2-yl)acetamide]
IC50: 117 nM

CC(C)(CO)n1cc(C(=O)c2cc(NC(=O)Cc3ccc(C#N)cc3)ccn2)c2cncnc21 [Example 57, 2-(4-cyanophenyl)-N-(2-{[7-(1-hydroxy-2-methylpropan-2-yl)-7H-pyrrolo[2,3-d]pyrimidin-5-yl]carbonyl}pyridin-4-yl)acetamide]
IC50: 66.1 nM

CC(CO)(CO)n1cc(C(=O)c2cc(NC(=O)Cc3ccc(Cl)cc3)ccn2)c2cncnc21 [Example 102, 2-(4-chlorophenyl)-N-(2-{[7-(1,3-dihydroxy-2-methylpropan-2-yl)-7H-pyrrolo[2,3-d]pyrimidin-5-yl]carbonyl}pyridin-4-yl)acetamide]
IC50: 96.6 nM

CC(C)(C)n1cc(C(=O)c2cc(NC(=O)Cc3ccc(F)cn3)ccn2)c2cncnc21 [Example 37, N-{2-[(7-tert-butyl-7H-pyrrolo[2,3-d]pyrimidin-5-yl)carbonyl]pyridin-4-yl}-2-(5-fluoropyridin-2-yl)acetamide]
IC50: 21 nM

CC(C)(CO)n1cc(C(=O)c2cc(NC(=O)Cn3ccc(C4CC4)n3)ccn2)c2cncnc21 [Example 61, 2-(3-cyclopropyl-1H-pyrazol-1-yl)-N-(2-{[7-(1-hydroxy-2-methylpropan-2-yl)-7H-pyrrolo[2,3-d]pyrimidin-5-yl]carbonyl}pyridin-4-yl)acetamide]
IC50: 25.4 nM

CC(C)(C)n1cc(C(=O)c2cc(NC(=O)Cc3ccc(Cl)cn3)ccn2)c2cncnc21 [Example 39, N-{2-[(7-tert-butyl-7H-pyrrolo[2,3-d]pyrimidin-5-yl)carbonyl]pyridin-4-yl}-2-(5-chloropyridin-2-yl)acetamide]
IC50: 5.27 nM

O=C(Cc1ccc(Cl)cc1)Nc1cc(C(=O)c2cn(CCO)c3ncncc23)ccn1 [Example 136, 2-(4-chlorophenyl)-N-(4-{[7-(2-hydroxyethyl)-7H-pyrrolo[2,3-d]pyrimidin-5-yl]carbonyl}pyridin-2-yl)acetamide]
IC50: 25.8 nM

CC(C)n1cc(C(=O)c2cc(NC(=O)Cc3ccc(Cl)cc3)ncn2)c2cncnc21 [Example 65, 2-(4-chlorophenyl)-N-(6-{[7-(propan-2-yl)-7H-pyrrolo[2,3-d]pyrimidin-5-yl]carbonyl}pyrimidin-4-yl)acetamide]
IC50: 23.4 nM

CC(C)(CO)n1cc(C(=O)c2ccc(C#N)c(NC(=O)Cn3ccc(C(F)(F)F)n3)c2)c2cnc(N)nc21 [Example 11, N-(5-{[2-amino-7-(1-hydroxy-2-methylpropan-2-yl)-7H-pyrrolo[2,3-d]pyrimidin-5-yl]carbonyl}-2-cyanophenyl)-2-[3-(trifluoromethyl)-1H-pyrazol-1-yl]acetamide]
IC50: 11.5 nM

Cc1cc(C(=O)c2cn(C(C)C)c3ncncc23)cc(NC(=O)Cc2ccccc2)n1 [Example 75, N-(6-methyl-4-{[7-(propan-2-yl)-7H-pyrrolo[2,3-d]pyrimidin-5-yl]carbonyl}pyridin-2-yl)-2-phenylacetamide]
IC50: 306 nM

CC1(n2cc(C(=O)c3cc(NC(=O)Cc4ccc(C(F)(F)F)cc4)ccn3)c3cncnc32)COC1 [Example 167, N-(2-{[7-(3-methyloxetan-3-yl)-7H-pyrrolo[2,3-d]pyrimidin-5-yl]carbonyl}pyridin-4-yl)-2-[4-(trifluoromethyl)phenyl]acetamide]
IC50: 72.9 nM

C[C@H](CO)n1cc(C(=O)c2cc(NC(=O)Cc3cccc(C(F)(F)F)c3)ccn2)c2cncnc21 [Example 19, N-[2-({7-[(2R)-1-hydroxypropan-2-yl]-7H-pyrrolo[2,3-d]pyrimidin-5-yl}carbonyl)pyridin-4-yl]-2-[3-(trifluoromethyl)phenyl]acetamide]
IC50: 97.6 nM

Cc1ccnn1CC(=O)Nc1cc(C(=O)c2cn(CCO)c3ncncc23)ccn1 [Example 130, N-(4-{[7-(2-hydroxyethyl)-7H-pyrrolo[2,3-d]pyrimidin-5-yl]carbonyl}pyridin-2-yl)-2-(5-methyl-1H-pyrazol-1-yl)acetamide]
IC50: 1750 nM

O=C(Cc1ccc(Cl)cc1Cl)Nc1ccnc(C(=O)c2cn(C(CO)CO)c3ncncc23)c1 [Example 95, 2-(2,4-dichlorophenyl)-N-(2-{[7-(1,3-dihydroxypropan-2-yl)-7H-pyrrolo[2,3-d]pyrimidin-5-yl]carbonyl}pyridin-4-yl)acetamide]
IC50: 146 nM

O=C(Cc1ccc(Cl)c(Cl)c1)Nc1cc(C(=O)c2cn(CCO)c3ncncc23)ccn1 [Example 138, 2-(3,4-dichlorophenyl)-N-(4-{[7-(2-hydroxyethyl)-7H-pyrrolo[2,3-d]pyrimidin-5-yl]carbonyl}pyridin-2-yl)acetamide]
IC50: 31.1 nM

CC(C)n1cc(C(=O)c2ccnc(NC(=O)Cn3cccn3)c2)c2cncnc21 [Example 158, N-(4-{[7-(propan-2-yl)-7H-pyrrolo[2,3-d]pyrimidin-5-yl]carbonyl}pyridin-2-yl)-2-(1H-pyrazol-1-yl)acetamide]
IC50: 1350 nM

N#Cc1ccc(CC(=O)Nc2cc(C(=O)c3cn(C(CO)CO)c4ncncc34)ccn2)cc1 [Example 114, 2-(4-cyanophenyl)-N-(4-{[7-(1,3-dihydroxypropan-2-yl)-7H-pyrrolo[2,3-d]pyrimidin-5-yl]carbonyl}pyridin-2-yl)acetamide]
IC50: 536 nM

CC1(n2cc(C(=O)c3cc(NC(=O)Cc4ccc(C(F)(F)F)c(F)c4)ccn3)c3cncnc32)COC1 [Example 170, 2-[3-fluoro-4-(trifluoromethyl)phenyl]-N-(2-{[7-(3-methyloxetan-3-yl)-7H-pyrrolo[2,3-d]pyrimidin-5-yl]carbonyl}pyridin-4-yl)acetamide]
IC50: 99.8 nM

CC(C)(C)n1cc(C(=O)c2cc(NC(=O)Cc3ccc(Cl)cc3)ccn2)c2cncnc21 [Example 42, N-{2-[(7-tert-butyl-7H-pyrrolo[2,3-d]pyrimidin-5-yl)carbonyl]pyridin-4-yl}-2-(4-chlorophenyl)acetamide]
IC50: 11.5 nM

CC(C)(CO)n1cc(C(=O)c2cc(NC(=O)Cc3cccc(C(F)(F)F)c3)ccn2)c2cncnc21 [Example 56, N-(2-{[7-(1-hydroxy-2-methylpropan-2-yl)-7H-pyrrolo[2,3-d]pyrimidin-5-yl]carbonyl}pyridin-4-yl)-2-[3-(trifluoromethyl)phenyl]acetamide]
IC50: 6.56 nM

CC(C)(C)n1cc(C(=O)c2cc(NC(=O)Cc3cccc(S(C)(=O)=O)c3)ccn2)c2cncnc21 [Example 38, N-{2-[(7-tert-butyl-7H-pyrrolo[2,3-d]pyrimidin-5-yl)carbonyl]pyridin-4-yl}-2-[3-(methylsulfonyl)phenyl]acetamide]
IC50: 9.61 nM

CC(C)(CO)n1cc(C(=O)c2cc(NC(=O)Cn3ccc(C(F)(F)F)n3)ccn2)c2cncnc21 [Example 59, N-(2-{[7-(1-hydroxy-2-methylpropan-2-yl)-7H-pyrrolo[2,3-d]pyrimidin-5-yl]carbonyl}pyridin-4-yl)-2-[3-(trifluoromethyl)-1H-pyrazol-1-yl]acetamide]
IC50: 12.3 nM

N#Cc1ccc(CC(=O)Nc2cc(C(=O)c3cn([C@H]4CC[C@@H](O)CC4)c4ncncc34)ccn2)cc1 [Example 5, 2-(4-cyanophenyl)-N-(4-{[7-(cis-4-hydroxycyclohexyl)-7H-pyrrolo[2,3-d]pyrimidin-5-yl]carbonyl}pyridin-2-yl)acetamide]
IC50: 75.6 nM

Cc1cc(C(F)(F)F)nn1CC(=O)Nc1ccnc(C(=O)c2cn([C@H](C)CO)c3ncncc23)c1 [Example 21, N-[2-({7-[(2R)-1-hydroxypropan-2-yl]-7H-pyrrolo[2,3-d]pyrimidin-5-yl}carbonyl)pyridin-4-yl]-2-[5-methyl-3-(trifluoromethyl)-1H-pyrazol-1-yl]acetamide]
IC50: 95.8 nM

CC(C)n1cc(C(=O)c2ccnc(NC(=O)Cc3cccc(S(C)(=O)=O)c3)c2)c2cncnc21 [Example 123, 2-[3-(methylsulfonyl)phenyl]-N-(4-{[7-(propan-2-yl)-7H-pyrrolo[2,3-d]pyrimidin-5-yl]carbonyl}pyridin-2-yl)acetamide]
IC50: 42.1 nM

O=C(Cc1ccc(OC(F)(F)F)cc1)Nc1ccnc(C(=O)c2cn(C(CO)CO)c3ncncc23)c1 [Example 98, N-(2-{[7-(1,3-dihydroxypropan-2-yl)-7H-pyrrolo[2,3-d]pyrimidin-5-yl]carbonyl}pyridin-4-yl)-2-[4-(trifluoromethoxy)phenyl]acetamide]
IC50: 1500 nM

From patent US20150218172A1, “Pyrrolo[2,3-D]Pyrimidine Tropomyosin-Related Kinase Inhibitors” (PFIZER LIMITED, priority 2012, published 2015)
